Source: patent US5854241A, “Pyrido[3,2,1-I,J][3,1]benzoxazine derivatives” (Bayer Aktiengesellschaft, priority 1994, dated 1998)
Converted amounts (≈) assume the structure as drawn. Read-outs that look alike come from different tables or passages of the source.

What was measured:
Format in all cases: cell-based
Enterobacter = assay: MIC by serial agar dilution, Enterobacter; conditions: Enterobacter strain 0,4 Ge 02-33; Iso-Sensitest agar, 37° C., approx. 20 hours
Procedure: (§1) The minimum inhibitory concentrations (MICs) were determined by serial dilution methods using Iso-Sensitest agar (Oxoid). For each test substance, a series of agar plates was prepared whose active compound concentrations decreased as the dilution was doubled. The agar plates were inoculated using a multipoint inoculator (Denley). The cultures used for inoculation were overnight cultures of the pathogen which had previously been diluted to such an extent that each inoculation point contained approximately 10^4 colony-forming units. The inoculated agar plates were incubated at 37° C., and the microbial growth was read off after approximately 20 hours.
(§2) The following table lists the MIC values of some of the compounds according to the invention in comparison with 9-fluoro-3-methyl-10-(4-methyl-1-piperazinyl)-7-oxo-1H,3H,7H-pyrido[3,2,1- i,j]-[3,1]-benzoxazine-6-carboxylic acid (EP-O 373 531) as reference compound.

Pseudomonas = assay: MIC by serial agar dilution, Pseudomonas; conditions: Pseudomonas strain BS 698 TGD; Iso-Sensitest agar, 37° C., approx. 20 hours
Procedure: as §1, §2

Klebsiella pneumoniae = assay: MIC by serial agar dilution, Klebsiella pneumoniae; conditions: Klebsiella pneumoniae strain 2363 Ge; Iso-Sensitest agar, 37° C., approx. 20 hours
Procedure: as §1, §2

E. coli = assay: MIC by serial agar dilution, E. coli; conditions: Escherichia coli, 20 h, Iso-Sensitest agar, 37° C., approx. 20 hours
Procedure: as §1, §2

Salmonella = assay: MIC by serial agar dilution, Salmonella; conditions: Salmonella strain 1 Fr; Iso-Sensitest agar, 37° C., approx. 20 hours
Procedure: as §1, §2

Staphylococcus aureus = assay: MIC by serial agar dilution, Staphylococcus aureus; conditions: 20 h, Iso-Sensitest agar, 37° C., approx. 20 hours
Procedure: as §1, §2

[1] = Staphylococcus aureus strain 3781 Ge
[2] = Staphylococcus aureus strain Z 2 Lit
[3] = E. coli strain Z 431 Lit, read-out: MIC

Row | Compound | MIC (Enterobacter) | MIC (Pseudomonas) | MIC (Klebsiella pneumoniae) | MIC (E. coli; E. coli strain 21 Bui) | MIC (E. coli; E. coli strain Z 431 Lit) | MIC (Salmonella) | MIC (Staphylococcus aureus; [1]) | MIC (Staphylococcus aureus; [2]) | MIC (E. coli; [3])
1 | CC1OCc2c(N3CCN(C)CC3)c(F)cc3c(=O)c(C(=O)O)cn1c23 (centres unmarked) [Reference, 9-fluoro-3-methyl-10-(4-methyl-1-piperazinyl)-7-oxo-1H,3H,7H-pyrido[3,2,1-i,j]-[3,1]-benzoxazine-6-carboxylic acid, reference compound] | 1 µg/mL (≈ 2.77 µM) | 64 µg/mL (≈ 177 µM) | 0.5 µg/mL (≈ 1.38 µM) | 0.05 µg/mL (≈ 0.138 µM) | 0.05 µg/mL (≈ 0.138 µM) | 1 µg/mL (≈ 2.77 µM) | 128 µg/mL (≈ 354 µM) | 16 µg/mL (≈ 44.3 µM) | –
2 | CC1OCc2c(N3CC4CC=CC(N)C4C3)c(F)cc3c(=O)c(C(=O)O)cn1c23 (centres unmarked) [Example 1, 10-(2-Amino-8-azabicyclo[4,3,0]non-3-en-8-yl)-9-fluoro-3-methyl-7-oxo-1H,3H ,7H-pyrido-[3,2,1-i,j][3,1]benzoxazine6-carboxylic acid] | 0.25 µg/mL (≈ 0.626 µM) | 4 µg/mL (≈ 10 µM) | 0.06 µg/mL (≈ 0.15 µM) | 4 µg/mL (≈ 10 µM) | – | 0.06 µg/mL (≈ 0.15 µM) | 0.12 µg/mL (≈ 0.3 µM) | 0.12 µg/mL (≈ 0.3 µM) | 0.015 µg/mL (≈ 0.0376 µM)
3 | CNC1C=CCC2CN(c3c(F)cc4c(=O)c(C(=O)O)cn5c4c3COC5C)CC21 (centres unmarked) [Example 5, 9-Fluoro-3-methyl-10-(2-methylamino-8-azabicyclo[4.3.0]non-3-en-8-yl)-7-oxo-1H,3H,7H-pyrido [3,2,1-i,j][3,]benzoxazine-6-carboxylic acid] | 0.12 µg/mL (≈ 0.29 µM) | 16 µg/mL (≈ 38.7 µM) | 0.12 µg/mL (≈ 0.29 µM) | 4 µg/mL (≈ 9.67 µM) | – | 0.12 µg/mL (≈ 0.29 µM) | 0.12 µg/mL (≈ 0.29 µM) | 0.12 µg/mL (≈ 0.29 µM) | ≤ 0.015 µg/mL
4 | CC1OCc2c(N3CC4CCCNC4C3)c(F)cc3c(=O)c(C(=O)O)cn1c23 (centres unmarked) [Example 4, 10-(2.8-Diazabicyclo[4,3,0]nonan-8-yl)-9-fluoro-3-methyl-7-oxo-1H,3H,7H-pyr ido-[3,2,1-i,j][3,1]benzoxazine-6-carboxylic acid] | 0.12 µg/mL (≈ 0.31 µM) | 8 µg/mL (≈ 20.6 µM) | 0.12 µg/mL (≈ 0.31 µM) | 4 µg/mL (≈ 10.3 µM) | – | 0.25 µg/mL (≈ 0.645 µM) | 8 µg/mL (≈ 20.6 µM) | 0.5 µg/mL (≈ 1.29 µM) | 0.06 µg/mL (≈ 0.155 µM)
